From patent publication US8247211B2, “Glycopeptide antibiotics” (American Cyanamid Company, priority 2001, dated 2012)
≈ marks a conversion by molar mass, not a printed value.

What was measured:
Assay in all cases: In vitro antibacterial evaluation: minimum inhibitory concentration (MIC), broth dilution method
Type in all cases: cell-based
[1] = test system: Enterococcus sp.
Procedure, shortened: (§1)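 NCCLS M7-A2 broth dilution with Mueller-Hinton II, testing 64-0.06 μg/mL antibiotic against 5×10^5 CFU/mL inocula. Test strains include recent methicillin-, penicillin- or vancomycin-resistant clinical isolates. MIC is the lowest concentration preventing growth.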

[2] = test system: Staphylococcus sp.; details: for MIC Staphylococcus haemolyticus (GC 4546): strain GC 4546; for MIC Coagulase Negative Staphylococcus (GC 4547): strain GC 4547; for MIC Coagulase Negative Staphylococcus (GC 4548): strain GC 4548; for MIC Coagulase Negative Staphylococcus (GC 4549): strain GC 4549; for MIC Coagulase Negative Staphylococcus (GC 4551): strain GC 4551
Procedure, shortened: as §1

[3] = test system: Escherichia coli
Procedure, shortened: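 MIC read as lowest drug level preventing visible growth. Organisms at 5×10^5 CFU/mL were exposed to a 64-0.06 μg/mL dilution series in Muller-Hinton II […] following NCCLS broth dilution standard M7-A2.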

[4] = test system: Streptococcus sp.
Procedure, shortened: as §1

[5] = broth dilution, inoculum 5×10^5 CFU/mL, 18 hours at 35° C.
[6] = broth dilution, 18 hours at 35° C.

Compound: CC(c1ccccc1)C1NC(=O)CNC(=O)C(CO)NC(=O)C(C(O)C2CN(c3ncccn3)C(=N)N2C2OC(CO)C(O)C(O)C2O)NC(=O)C(C(O)C2CNC(=Nc3ncccn3)N2)NC(=O)C(Cc2ccc(OC3OC(CO)C(OC4OC5COC6(OC5C(O)C4O)C4CC5CC(C4)CC6C5)C(O)C3O)cc2)NC1=O (stereo not drawn) [Example 228, Di-N-(2-(pyrimidinyl)-cyclo[glycyl-β-methylphenylalanyl-O-[4-O-[4,6-O-(2-adamantylidene)hexopyranosyl]hexopyranosyl]tyrosyl-3-[2-iminoimidazolidin-4-yl]seryl-3-β-hexopyranosyl-2-iminoimidazolidin-4-yl]serylseryl]]
- MIC Enterococcus avium (GC 4558) ([1]; Enterococcus avium (GC 4558), 18 hours at 35° C.): 8 µg/mL (≈ 5.05 µM)
- MIC Enterococcus faecalis (ATCC 29212) ([1]; Enterococcus faecalis (ATCC 29212), 18 hours at 35° C.): 32 µg/mL (≈ 20.2 µM)
- MIC Enterococcus faecalis (GC 2242) ([1]; Enterococcus faecalis (GC 2242), 18 hours at 35° C.): 32 µg/mL (≈ 20.2 µM)
- MIC Enterococcus faecalis (GC 2691) ([1]; Enterococcus faecalis (GC 2691), 18 hours at 35° C.): 32 µg/mL (≈ 20.2 µM)
- MIC Enterococcus faecalis (GC 3059) ([1]; Enterococcus faecalis (GC 3059), 18 hours at 35° C.): 32 µg/mL (≈ 20.2 µM)
- MIC Enterococcus faecalis (GC 4552) ([1]; Enterococcus faecalis (GC 4552), 18 hours at 35° C.): 32 µg/mL (≈ 20.2 µM)
- MIC Enterococcus faecalis (GC 4553) ([1]; Enterococcus faecalis (GC 4553), 18 hours at 35° C.): 16 µg/mL (≈ 10.1 µM)
- MIC Enterococcus faecalis (GC 4554) ([1]; Enterococcus faecalis (GC 4554), 18 hours at 35° C.): 32 µg/mL (≈ 20.2 µM)
- MIC Enterococcus faecalis (GC 6189) ([1]; Enterococcus faecalis (GC 6189), 18 hours at 35° C.): 32 µg/mL (≈ 20.2 µM)
- MIC Enterococcus faecium (GC 2243) ([1]; Enterococcus faecium (GC 2243), 18 hours at 35° C.): 16 µg/mL (≈ 10.1 µM)
- MIC Enterococcus faecium (GC 4556) ([1]; Enterococcus faecium (GC 4556), 18 hours at 35° C.): 32 µg/mL (≈ 20.2 µM)
- MIC Enterococcus faecium (GC 4557) ([1]; Enterococcus faecium (GC 4557), 18 hours at 35° C.): 16 µg/mL (≈ 10.1 µM)
- MIC Enterococcus avium (GC 4558) [1, 5]: 8 µg/mL (≈ 5.05 µM)
- MIC Enterococcus faecalis (ATCC 29212) [1, 5]: 32 µg/mL (≈ 20.2 µM)
- MIC Enterococcus faecalis (GC 2242) [1, 5]: 32 µg/mL (≈ 20.2 µM)
- MIC Enterococcus faecalis (GC 2691) [1, 5]: 32 µg/mL (≈ 20.2 µM)
- MIC Enterococcus faecalis (GC 3059) [1, 5]: 32 µg/mL (≈ 20.2 µM)
- MIC Enterococcus faecalis (GC 4552) [1, 5]: 32 µg/mL (≈ 20.2 µM)
- MIC Enterococcus faecalis (GC 4553) [1, 5]: 16 µg/mL (≈ 10.1 µM)
- MIC Enterococcus faecalis (GC 4554) [1, 5]: 32 µg/mL (≈ 20.2 µM)
- MIC Enterococcus faecalis (GC 6189) [1, 5]: 32 µg/mL (≈ 20.2 µM)
- MIC Enterococcus faecium (GC 2243) [1, 5]: 16 µg/mL (≈ 10.1 µM)
- MIC Enterococcus faecium (GC 4556) [1, 5]: 32 µg/mL (≈ 20.2 µM)
- MIC Enterococcus faecium (GC 4557) [1, 5]: 16 µg/mL (≈ 10.1 µM)
- MIC Staphylococcus aureus (ATCC 29213) ([2]; strain ATCC 29213): 32 µg/mL (≈ 20.2 µM)
- MIC Staphylococcus aureus (GC 1131) ([2]; strain GC 1131): 32 µg/mL (≈ 20.2 µM)
- MIC Staphylococcus aureus (GC 3051) ([2]; strain GC 3051): 32 µg/mL (≈ 20.2 µM)
- MIC Staphylococcus aureus (GC 3053) ([2]; strain GC 3053): 32 µg/mL (≈ 20.2 µM)
- MIC Staphylococcus aureus (GC 4541) ([2]; strain GC 4541): 32 µg/mL (≈ 20.2 µM)
- MIC Staphylococcus aureus (GC 4542) ([2]; strain GC 4542): 32 µg/mL (≈ 20.2 µM)
- MIC Staphylococcus aureus-SMITH (GC 4543) ([2]; strain GC 4543): 32 µg/mL (≈ 20.2 µM)
- MIC Staphylococcus aureus (GC 4544) ([2]; strain GC 4544): 32 µg/mL (≈ 20.2 µM)
- MIC Staphylococcus aureus (GC 4545) ([2]; strain GC 4545): 32 µg/mL (≈ 20.2 µM)
- MIC Staphylococcus haemolyticus (GC 4546) [2]: 16 µg/mL (≈ 10.1 µM)
- MIC Coagulase Negative Staphylococcus (GC 4547) [2]: 16 µg/mL (≈ 10.1 µM)
- MIC Coagulase Negative Staphylococcus (GC 4548) [2]: 16 µg/mL (≈ 10.1 µM)
- MIC Coagulase Negative Staphylococcus (GC 4549) [2]: 16 µg/mL (≈ 10.1 µM)
- MIC Coagulase Negative Staphylococcus (GC 4551) [2]: 16 µg/mL (≈ 10.1 µM)
- MIC Escherichia coli (ATCC 25922) ([3]; Escherichia coli (ATCC 25922), 18 hours at 35° C.): >64 µg/mL
- MIC Escherichia coli (GC 4559) ([3]; Escherichia coli (GC 4559), 18 hours at 35° C.): >64 µg/mL
- MIC Escherichia coli (GC 4560) ([3]; Escherichia coli (GC 4560), 18 hours at 35° C.): 16 µg/mL (≈ 10.1 µM)
- MIC Streptococcus agalactiae (GC 4564) ([4]; Streptococcus agalactiae (GC 4564), 18 hours at 35° C.): 16 µg/mL (≈ 10.1 µM)
- MIC Streptococcus pneumoniae (ATCC 6301) ([4]; Streptococcus pneumoniae (ATCC 6301), 18 hours at 35° C.): 8 µg/mL (≈ 5.05 µM)
- MIC Streptococcus pneumoniae (GC 1894) ([4]; Streptococcus pneumoniae (GC 1894), 18 hours at 35° C.): 8 µg/mL (≈ 5.05 µM)
- MIC Streptococcus pneumoniae (GC 4565) ([4]; Streptococcus pneumoniae (GC 4565), 18 hours at 35° C.): 8 µg/mL (≈ 5.05 µM)
- MIC Streptococcus pyogenes (GC 4563) ([4]; Streptococcus pyogenes (GC 4563), 18 hours at 35° C.): 8 µg/mL (≈ 5.05 µM)
- MIC Streptococcus agalactiae (GC 4564) [4, 5]: 16 µg/mL (≈ 10.1 µM)
- MIC Streptococcus pneumoniae (ATCC 6301) [4, 5]: 8 µg/mL (≈ 5.05 µM)
- MIC Streptococcus pneumoniae (GC 1894) [4, 5]: 8 µg/mL (≈ 5.05 µM)
- MIC Streptococcus pneumoniae (GC 4565) [4, 5]: 8 µg/mL (≈ 5.05 µM)
- MIC Streptococcus pyogenes (GC 4563) [4, 5]: 8 µg/mL (≈ 5.05 µM)

Compound: CC(c1ccccc1)C1NC(=O)CNC(=O)C(CO)NC(=O)C(C(O)C2CN(c3nc4ccccc4s3)C(=N)N2C2OC(CO)C(O)C(O)C2O)NC(=O)C(C(O)C2CNC(=Nc3nc4ccccc4s3)N2)NC(=O)C(Cc2ccc(OC3OC(CO)C(OC4OC(CO)C(O)C(O)C4O)C(O)C3O)cc2)NC1=O (stereo not drawn) [Example 94, Cyclo[glycyl-β-methylphenylalanyl-O-(4-O-hexopyranosylhexopyranosyl)tyrosyl-3-[2-(1,3-benzothiazol-2-ylimino)imidazolidin-4-yl]seryl-3-[1-(1,3-benzo-thiazol-2-yl)-2-imino-3-hexonyranosylimidazolidin-4-yl]serylseryl]]
- MIC Enterococcus faecalis (GC 2242) ([1]; Enterococcus faecalis (GC 2242), broth dilution, 18 hours at 35° C.): >64 µg/mL
- MIC Enterococcus faecalis (GC 2691) ([1]; Enterococcus faecalis (GC 2691), broth dilution, 18 hours at 35° C.): >64 µg/mL
- MIC Enterococcus faecalis (GC 3059) ([1]; Enterococcus faecalis (GC 3059), broth dilution, 18 hours at 35° C.): >64 µg/mL
- MIC Enterococcus faecalis (ATCC 29212) ([1]; strain ATCC 29212): >64 µg/mL
- MIC Enterococcus faecalis (GC 2242) ([1]; strain GC 2242): >64 µg/mL
- MIC Enterococcus faecium (GC 2243) ([1]; strain GC 2243): >64 µg/mL
- MIC Enterococcus faecalis (GC 2691) ([1]; strain GC 2691): >64 µg/mL
- MIC Enterococcus faecalis (GC 3059) ([1]; strain GC 3059): >64 µg/mL
- MIC Enterococcus faecalis (GC 4552) ([1]; strain GC 4552): >64 µg/mL
- MIC Enterococcus faecalis (GC 4553) ([1]; strain GC 4553): >64 µg/mL
- MIC Enterococcus faecalis (GC 4554) ([1]; strain GC 4554): >64 µg/mL
- MIC Enterococcus faecium (GC 4556) ([1]; strain GC 4556): >64 µg/mL
- MIC Enterococcus faecium (GC 4557) ([1]; strain GC 4557): >64 µg/mL
- MIC Enterococcus avium (GC 4558) ([1]; strain GC 4558): >64 µg/mL
- MIC Enterococcus faecalis (GC 6189) ([1]; strain GC 6189): >64 µg/mL
- MIC Staphylococcus aureus (ATCC 29213) [2, 6]: >64 µg/mL
- MIC Staphylococcus aureus (GC 1131) [2, 6]: >64 µg/mL
- MIC Staphylococcus aureus (GC 3051) [2, 6]: >64 µg/mL
- MIC Staphylococcus aureus (GC 3053) [2, 6]: >64 µg/mL
- MIC Staphylococcus aureus (GC 4541) [2, 6]: >64 µg/mL
- MIC Staphylococcus aureus (GC 4542) [2, 6]: >64 µg/mL
- MIC Staphylococcus aureus (GC 4544) [2, 6]: >64 µg/mL
- MIC Staphylococcus aureus (GC 4545) [2, 6]: >64 µg/mL
- MIC Staphylococcus aureus-SMITH (GC 4543) ([2]; strain GC 4543, 18 hours at 35° C.): >64 µg/mL
- MIC Staphylococcus haemolyticus (GC 4546) [2]: >64 µg/mL
- MIC Coagulase Negative Staphylococcus (GC 4547) [2]: >64 µg/mL
- MIC Coagulase Negative Staphylococcus (GC 4548) [2]: >64 µg/mL
- MIC Coagulase Negative Staphylococcus (GC 4549) [2]: >64 µg/mL
- MIC Coagulase Negative Staphylococcus (GC 4551) [2]: >64 µg/mL
- MIC Staphylococcus aureus-SMITH (GC 4543) ([2]; strain SMITH GC 4543, broth dilution, 18 hours at 35° C.): >64 µg/mL
- MIC Escherichia coli (ATCC 25922) ([3]; strain ATCC 25922): >64 µg/mL
- MIC Escherichia coli (GC 4559) ([3]; strain GC 4559): >64 µg/mL
- MIC Escherichia coli (GC 4560) ([3]; strain GC 4560): 64 µg/mL (≈ 41 µM)
- MIC Streptococcus agalactiae (GC 4564) ([4]; Streptococcus agalactiae (GC 4564), broth dilution, 18 hours at 35° C.): >64 µg/mL
- MIC Streptococcus pneumoniae (ATCC 6301) ([4]; Streptococcus pneumoniae (ATCC 6301), broth dilution, 18 hours at 35° C.): >64 µg/mL
- MIC Streptococcus pneumoniae (GC 1894) ([4]; Streptococcus pneumoniae (GC 1894), broth dilution, 18 hours at 35° C.): >64 µg/mL
- MIC Streptococcus pneumoniae (GC 4565) ([4]; Streptococcus pneumoniae (GC 4565), broth dilution, 18 hours at 35° C.): >64 µg/mL
- MIC Streptococcus pyogenes (GC 4563) ([4]; Streptococcus pyogenes (GC 4563), broth dilution, 18 hours at 35° C.): >64 µg/mL
- MIC Streptococcus pneumoniae (ATCC 6301) ([4]; strain ATCC 6301): >64 µg/mL
- MIC Streptococcus pneumoniae (GC 1894) ([4]; strain GC 1894): >64 µg/mL
- MIC Streptococcus pyogenes (GC 4563) ([4]; strain GC 4563): >64 µg/mL
- MIC Streptococcus agalactiae (GC 4564) ([4]; strain GC 4564): >64 µg/mL
- MIC Streptococcus pneumoniae (GC 4565) ([4]; strain GC 4565): >64 µg/mL
